# Marks after values point to notes of the source that are not given here.
# What was measured:
# [1] = Example 1: serum lipids and serum metabolites of mice fed feed supplemented with 0.5% test compound; assay type: in vivo; settings: for Serum metabolite: metabolite of the test compound detected in serum; for Serum metabolite / Serum cholesterol / Serum neutral fats: CDF1 mice; for Serum cholesterol / Serum neutral fats: ratio relative to the non-treated control group
# Description: (§1) 5-Sitosten-3-one was prepared according to the method of Parish (Parish, E. J., et al., Synthetic Communication, 22, pp.2839-2847, 1992) by using β-sitosterol (Tokyo Chemical Industry Co., Ltd.) as a starting material and used in the experiments. The content ratio of 24-ethyl and 24-methyl compounds in the synthesized product was 6.5:3.5. As experimental animals, six CDF1 male mice (5-week old, Charles River Japan Inc.) were used in each experimental group. The animals were fed in aluminum cages for mice, and allowed to feed and water ad libitum. The animals were fed for 2 weeks under feeding conditions at a temperature of 24±1° C. and a relative humidity of 55±5%, where light and darkness were controlled to change every 12 hours, and each cage and floor mat (white flakes) were exchanged twice a week.
# (§2) Modified AIN (Oriental Yeast Co.) was used as basic feed and mixed with 0.5% 5-sitosten-3-one to prepare test feeds. A feed used as a positive control was prepared by adding 0.5% of 4-cholesten-3-one (Japanese Patent Unexamined Publication No. Hei 5-170651/1993) to the basic feed. Non-treated mice as a control were fed solely with the basic feed. The basic feed was composed of 22.8% crude protein, 54.1% carbohydrates, 6.0% lipids, 4.9% fibers, 2.9% ash, and 8.7% water, and its calorie was 1,523 kJ. The feed was stored at 4° C. after preparation, and a fresh feed was supplied every day.
# (§3) The animals were weighed at given intervals of time, and the average values and standard errors of the experimental groups were determined. In addition, feed consumptions were measured at given intervals of time and daily averages per mouse were determined. The animals were observed every day. After the end of the feeding, the animals were anesthetized to death with carbon dioxide gas, and bloods were collected from the vena cava to obtain serums. The animals were autopsied, and the brains, lungs, hearts, livers, spleens, kidneys, testis, adrenals and intraperitoneal fat were examined by the naked eye and weighed. As to serum lipid, neutral fats were measured by using a clinical test kit based on the enzyme method (Triglyceride-E Test, Wako Pure Chemicals Industries Co., Ltd.), and total cholesterol and cholestanol were measured by the method of Kasama (T. Kasama, et al., J. Chromatogr., 400, 241, 1987) with modifications, where the amount of benzoyl chloride was increased by 10 times, the reaction time was doubled, and the measurement was performed by using a high performance liquid chromatography system. Significant differences were determined by t-test for body weights and serum lipids on the basis of the non-treated control mice.
# [2] = Example 1: general conditions and autopsical finding; assay type: in vivo, CDF1 male mice; settings: 0.5% in feed, 2 weeks
# Description: as §1, §2, §3
# [3] = Example 3: dose response of 5-sitosten-3-one on body weight, feed intake, feed efficiency and intraperitoneal fat; assay type: in vivo, CDF1 male mice; settings: for Intraperitoneal fat: 3 weeks, mean (n=6) ± standard error; for Body weight gain: total throughout the experimental period
# Source text: (§4) 5Sitosten-3-one was synthesized from β-sitosterol (Tokyo Chemical Industry Co., Ltd.) according to the method of Parish (Parish, E. J., et al., Synthetic Communication, 22, pp.2839-2847, 1992), and purified by silica gel column chromatography and recrystallization. The content ratio of 24-ethyl isomer and 24-methyl compounds in the synthesized product was 6.5:3.5. As experimental animals, thirty 4-week old CDF1 male mice were purchased from Charles River Japan Inc. and divided into five experimental groups each composed of six mice. The test compounds were administered as the admixture in feeds, and the following groups were provided: (1) 0.1% addition, (2) 0.3% addition, (3) 0.5% addition, (4) a lipid-free feed without the addition of the test compound, and (5) control group without the addition of the test compound. A purified feed (modified AIN, Oriental Yeast Co.) was used as a basic feed, and supplemented with 10% soybean oil (Wako Pure Chemical Industries Co., Ltd.) to prepare solid feeds with or without the addition of the test compound. The lipid-free feed, per se, was processed to obtain solid feed. The animals were fed for a week with the feed for the control without the addition of test compound for acclimatization, and then the animals were allowed to feed with the respective feed ad libitum.
# (§5) Each group of animals was housed in an aluminum cages of 22×33×11(h)cm (6 mice per a cage), and feedings were carried out at a temperature of 24±1° C. and a relative humidity of 55±5%, where light and darkness were controlled change every 12 hours. Measurements of body weights and feed intakes, and observations of general conditions were conducted three times a week. After the feeding for 3 week with the test feeds, the animals were subjected to autopsy and their bloods were collected. As serum lipid analyses, triglyceride, phospholipid, free fatty acid, total cholesterol, and HDL-cholesterol were measured by using a clinical test kit (Wako Pure Chemicals Industries Co., Ltd. ). Significances of the resulting values were examined by the variance analysis for the groups treated with the medicament, or by the t-test for the lipid-free feed group.
# [4] = Feeding of rats with feed with 0.5% addition for 4 weeks (organ changes); assay type: in vivo; settings: Fischer F344 rats
# Source text: The changes observed in the livers, pancreases, kidneys, and lungs in the groups treated with the medicament were commonly observed in the lipid-free feed group, although the degrees were different. In the lipid-free feed group, absolute weight and relative weight of livers increased by 4% and 6%, respectively, and absolute weight and relative weight of kidneys decreased by 12% and 11%, respectively. […] These changes were not observed when Fischer F344 rats were fed with the feed with 0.5% addition for 4 weeks, and therefore, the changes were considered as unique to CDF1 mice.
# [5] = Example 3: dose response of 5-sitosten-3-one on serum lipids; assay type: in vivo, CDF1 male mice; settings: for Free fatty acid / HDL-cholesterol / Phospholipid / Total cholesterol / Triglyceride: 3 weeks, mean (n=6) ± standard error
# Source text: as §4, §5
# [6] = Example 3: general conditions and weight of organs; assay type: in vivo, CDF1 male mice
# Source text: as §4, §5
# [7] = Example 1: body weight, body fat and feed intake of mice fed feed supplemented with 0.5% test compound; assay type: in vivo, CDF1 male mice; settings: for Body weight gain / Intraperitoneal fat: ratio relative to the non-treated control group, CDF1 mice
# Description: as §1, §2, §3
# [8] = Example 4: body weight and body fat of mice fed 0.5% test compound for 14 days; assay type: in vivo, CDF1 male mice; settings: 0.5% in feed, mean (n=6) ± standard error
# Description: (§6) 5-Campesten-3-one was prepared from campesterol (>97%, Tama Biochemical Industry, Ltd.). 4-Sitosten-3,6-dione was prepared from β-sitosterol (>65%, Tokyo Chemical Industry Co., Ltd.) and obtained as a mixture of 24-ethyl compound and 24-methyl compound (2:1). 5-Stigmasten-3-one was prepared from stigmasterol (>94%, Tokyo Chemical Industry, Co., Ltd.). As experimental animals, six CDF1 male mice (5-week old, Charles River Japan Inc.) were used in each experimental group. Modified AIN (Oriental Yeast Co.) was used as basic feed and mixed with 0.5% of each test compound to prepare test feeds. The animals were allowed to feed with the test food ad libitum for 14 days. Measurements of body weights and observations of general conditions of the animals were carried out twice a week, and the animals were subjected to autopsy and their bloods were collected. Serum lipid analysis was conducted by using a clinical test kit based on the enzymatic method (Wako Pure Chemicals Industries Co., Ltd.). Significances of the resulting values were examined by the one-way analysis of variance with pairwise comparison (ANOVA) according to the Bonferroni method. Other conditions were the same as those described in Example 1.
# [9] = Example 4: serum lipid concentration of mice fed 0.5% test compound for 14 days; assay type: in vivo, CDF1 male mice; settings: 0.5% in feed
# Description: as §6
compound,measurement,setting,value
5-sitosten-3-one (24-ethylcholest-5-en-3-one),"Cholestanol (serum), mean ± standard error","[1]; 0.5% in feed, 2 weeks, n=6",0 mg/dL
same,"Neutral fats (serum), mean ± standard error","[1]; 0.5% in feed, 2 weeks, n=6",56.5 ± 8.2 mg/dL
same,"Total cholesterol (serum), mean ± standard error","[1]; 0.5% in feed, 2 weeks, n=6",81.3 ± 3.0 mg/dL
same,Serum metabolite,[1],0
same,Serum metabolite,[1]; listed as 5-sitosten-3-one,no cholestanol and other metabolites were detected
same,Serum cholesterol,[1],51%
same,Serum neutral fats,[1],15%
same,General conditions,[2],normal
same,Kidney weight at autopsy,[2],slight weight decrease
same,Pathological abnormality in the other organs and tissues,[2]; autopsy,No pathological abnormality
same,Amount of intraperitoneal fat relative to the control group,[3]; 0.1% addition group,83%
same,Feed efficiency (body weight gain/feed intake),[3]; 0.1% addition to feed,0.079
same,Intraperitoneal fat,[3]; 0.1% addition to feed,996.0 ± 53.5 mg
same,Body weight gain,[3]; 0.1% addition to feed,4.89 g/mouse
same,Changes in body weight (FIG. 4),"[3]; 0.1%, 0.3% and 0.5% addition, dose-dependent",body weight decreases were observed
same,Amount of intraperitoneal fat relative to the control group,[3]; 0.3% addition group,63%
same,Feed efficiency (body weight gain/feed intake),[3]; 0.3% addition to feed,0.062
same,Intraperitoneal fat,[3]; 0.3% addition to feed,760.7 ± 36.9 mg
same,Body weight gain,[3]; 0.3% addition to feed,3.62 g/mouse
same,Amount of intraperitoneal fat relative to the control group,[3]; 0.5% addition group,42%
same,Decrease of feed efficiency compared to the control group,[3]; 0.5% addition group,about 80%
same,Feed efficiency (body weight gain/feed intake),[3]; 0.5% addition to feed,0.016
same,Intraperitoneal fat,[3]; 0.5% addition to feed,500.6 ± 79.2 mg
same,Body weight gain,[3]; 0.5% addition to feed,0.84 g/mouse
same,"Organ weight changes (livers, pancreases, kidneys, lungs)",[4],not observed
same,Free fatty acid,[5]; 0.1% addition to feed,1.41 ± 0.04 mEq/dl
same,HDL-cholesterol,[5]; 0.1% addition to feed,68.7 ± 13.6 mg/dL
same,Phospholipid,[5]; 0.1% addition to feed,237.8 ± 8.9 mg/dL
same,Total cholesterol,[5]; 0.1% addition to feed,164.8 ± 4.0 mg/dL
same,Triglyceride,[5]; 0.1% addition to feed,145.4 ± 8.5 mg/dL
same,Change in HDL-cholesterol,[5]; 0.1-0.5% addition groups,no significant change
same,Free fatty acid,[5]; 0.3% addition to feed,1.05 ± 0.06 mEq/dl
same,HDL-cholesterol,[5]; 0.3% addition to feed,72.5 ± 7.7 mg/dL
same,Phospholipid,[5]; 0.3% addition to feed,187.0 ± 12.2 mg/dL
same,Total cholesterol,[5]; 0.3% addition to feed,125.5 ± 7.6 mg/dL
same,Triglyceride,[5]; 0.3% addition to feed,78.0 ± 0.9 mg/dL
same,Triglyceride as compared to the control group (decrease down to),[5]; 0.5% addition group,26%
same,Free fatty acid,[5]; 0.5% addition to feed,0.87 ± 0.05 mEq/dl
same,HDL-cholesterol,[5]; 0.5% addition to feed,61.7 ± 4.3 mg/dL
same,Phospholipid,[5]; 0.5% addition to feed,172.5 ± 8.6 mg/dL
same,Total cholesterol,[5]; 0.5% addition to feed,102.9 ± 6.4 mg/dL
same,Triglyceride,[5]; 0.5% addition to feed,66.8 ± 2.3 mg/dL
same,Liver weight difference,[6]; 0.1% addition group,no significant difference
same,Absolute weights of pancreas,[6]; 0.1-0.5% addition groups,decreased in proportion to the amount of the medicament
same,Changes in relative weight of pancreas,[6]; 0.1-0.5% addition groups,not significant
same,Decrease of absolute weight of kidney,[6]; 0.3% addition group,17%
same,Decrease of relative weight of kidney,[6]; 0.3% addition group,10%
same,Increase of relative weight of livers,[6]; 0.3% addition group,17%
same,Absolute weight of lungs and spleens,[6]; 0.5% addition group,Decreases
same,Decrease of absolute weight of kidney,[6]; 0.5% addition group,32%
same,Decrease of relative weight of kidney,[6]; 0.5% addition group,17%
same,Increase of absolute weight of livers,[6]; 0.5% addition group,15%
same,Increase of relative weight of livers,[6]; 0.5% addition group,40%
same,Relative weights of lungs and spleens,[6]; 0.5% addition group,not different from those of the control group
same,"General conditions (appearance, properties of feces, breath and behavior)","[6]; each experimental group, except for changes in body weight",No abnormality
same,Histopathological change,[6]; organs of treated CDF1 mice,absence of any histopathological change
same,Amount of intraperitoneal fat relative to non-treated control mice (FIG. 2),[7]; 0.5% in feed for two weeks,half
same,Body fat (subcutaneous fat and intraperitoneal fat),[7]; 0.5% in feed for two weeks,Remarkable decreases
same,Increase in body weight (FIG. 1),"[7]; 0.5% in feed, compared to non-treated control mice",remarkably suppressed
same,Body weight gain,[7],56%
same,Intraperitoneal fat,[7],50%
"CC(C)CCC[C@@H](C)[C@H]1CC[C@H]2[C@@H]3CCC4=CC(=O)CC[C@]4(C)[C@H]3CC[C@]12C [4-Cholesten-3-one, 4-cholesten-3-one]","Neutral fats (serum), mean ± standard error","[1]; 0.5% in feed, 2 weeks, n=6",197.7 ± 28.1 mg/dL
same,"Total cholesterol (serum), mean ± standard error","[1]; 0.5% in feed, 2 weeks, n=6",99.2 ± 5.8 mg/dL
same,Serum metabolite,[1],Cholestanol
same,Serum metabolite,[1]; listed as 4-cholesten-3-one,cholestanol
same,Serum cholesterol,[1],62%
same,Serum neutral fats,[1],54%
same,Spleens at autopsy,[2],enlargements
same,Body weight gain,[7],72^a %
same,Intraperitoneal fat,[7],74%
CC[C@H](CC[C@@H](C)[C@H]1CC[C@H]2[C@@H]3CC=C4CC(=O)CC[C@]4(C)[C@H]3CC[C@]12C)C(C)C [5-Stigmasten-3-one],Intraperitoneal fat,[8],745.7 ± 46.7 mg
same,Decrease of serum total cholesterol concentration,[9],~49%
same,Decrease of serum triglyceride concentration,[9],~68%
same,Total cholesterol,[9]; mean (n=6) ± standard error,97.9 ± 3.4 mg/dL
same,Triglyceride,[9]; mean (n=6) ± standard error,82.0 ± 6.7 mg/dL

# Source: patent US6531462B2, “Medicament for treating obesity and improving lipid metabolism” (priority 1997, dated 2003)
